Assay results published in ChEMBL document CHEMBL4342522 (J Med Chem, 2020).

Assays:
[1] = Unbound hepatic clearance in human liver microsomes; type: ADME, Microsome
[2] = Unbound hepatic clearance in rat liver microsomes; type: ADME, Microsome
SKM-1 = assay: Antiproliferative activity against human SKM1 cells assessed as reduction in cell viability after 5 days by CellTiter-Glo assay; type: functional, cell-based; details: SKM-1, 120 h
NCI-H1299 = assay: Antiproliferative activity against human H1299 cells assessed as reduction in cell viability after 5 days by CellTiter-Glo assay; type: functional, cell-based; details: NCI-H1299, 120 h
[3] = Unbound hepatic clearance in mouse liver microsomes; type: ADME, Microsome
[4] = Permeability in dog MDCK cells by PAMPA; type: ADME, cell-based, Canis lupus familiaris; details: read-out: permeability
[5] = target: T1, Bromodomain-containing protein 4 (Homo sapiens, UniProt O60885); assay: Inhibition of human N-terminal His6 tagged BRD4 BD2 (352 to 457) residues expressed in Escherichia coli BL21(DE3) cells after 1 hr by TR-FRET assay
[6] = target: T1, Bromodomain-containing protein 4; assay: biochemical; type: cell-based
Description: Inhibition of human N-terminal His6 tagged BRD4 BD1 (57 to 168) residues expressed in Escherichia coli BL21(DE3) cells after 1 hr by TR-FRET assay

| SMILES | CL free [1] [mL/min/kg] | CL free [2] [mL/min/kg] | IC50 (SKM-1) [nM] | IC50 (NCI-H1299) [nM] | CL free [3] [mL/min/kg] | Papp [4] [×10⁻⁶ cm/s] | Ki [5] [nM] | Ki [6] [nM] |
| --- | --- | --- | --- | --- | --- | --- | --- | --- |
| CCNC(=O)c1cc2c(-c3cc(S(=O)(=O)CC)ccc3Oc3c(C)cccc3C#N)cn(C)c(=O)c2[nH]1 | 683 | 1530 | 37 | 730 | 817 | 15.3 | 3.2 | 69 |
| COc1ccc2c(c1)[C@]13CCCC[C@@H]1[C@H](C2)N(C)CC3 [DEXTROMETHORPHAN] | – | 123 | – | – | – | – | – | – |
| CCNC(=O)c1cc2c(-c3cc(S(=O)(=O)CC)ccc3Oc3ccccc3Cl)cn(C)c(=O)c2[nH]1 | 200 | 1200 | 3.3 | 340 | 1200 | 13.8 | 0.5 | 6.5 |
| Cc1cccc(C)c1Oc1ccc(C(C)(C)O)cc1-c1cn(C)c(=O)c2[nH]c(C(=O)NC(C)(C)C)cc12 | 783 | 3000 | 14 | 1400 | 4330 | 1.26 | 1.1 | 220 |
| CCNC(=O)c1cc2c(-c3cc(S(N)(=O)=O)ccc3Oc3c(C)cccc3C)cn(C)c(=O)c2[nH]1 | – | – | 7 | 3000 | – | – | 1.1 | 66 |
| CCNC(=O)c1cc2c(-c3cc(NC(C)=O)ccc3Oc3c(C)cccc3C)cn(C)c(=O)c2[nH]1 | 83.3 | 667 | 3.5 | 730 | 2000 | 1.96 | 0.5 | 76 |
| CCNC(=O)c1cc2c(-c3cc(C(C)(C)O)ccc3Oc3c(C)cccc3C)cn(C)c(=O)c2[nH]1 | 617 | 1080 | 11 | 1200 | 2830 | 6.3 | 0.6 | 160 |
| CCNC(=O)c1cc2c(-c3cc(NC(C)=O)ccc3Oc3c(C)cc(F)cc3C)cn(C)c(=O)c2[nH]1 | 183 | 250 | 14 | 1600 | 2330 | 1.06 | 1.1 | 90 |
| CCNC(=O)c1cc2c(-c3cc(C4(O)CCC4)ccc3Oc3c(C)cc(F)cc3C)cn(C)c(=O)c2[nH]1 | 5830 | 6330 | 26 | 2200 | 15700 | 1.56 | 1.5 | 220 |
| CCN(C)C(=O)c1cc2c(-c3cc(S(C)(=O)=O)ccc3Oc3ccc(F)cc3F)cn(C)c(=O)c2[nH]1 | 63.3 | 282 | 56 | 390 | 288 | 16 | 40 | 13 |
| CCNC(=O)c1cc2c(-c3cc(NC(=O)OC)ccc3Oc3c(C)cc(F)cc3C)cn(C)c(=O)c2[nH]1 | 550 | – | 50 | 2400 | 6330 | 0.92 | 2.9 | 290 |
| CCNC(=O)c1cc2c(-c3cc(S(=O)(=O)CC)ccc3Oc3c(C)cc(F)cc3C)cn(C)c(=O)c2[nH]1 | 167 | 467 | 14 | 810 | 917 | 6.12 | 1.3 | 79 |
| CCNC(=O)c1cc2c(-c3cc(S(=O)(=O)CC)ccc3-c3cccc4cc[nH]c34)cn(C)c(=O)c2[nH]1 | 140 | 233 | 34 | 3900 | 517 | 3.5 | 0.9 | 170 |
| CCNC(=O)c1cc2c(-c3cc(S(=O)(=O)CC)ccc3-n3ccc4cccc(C)c43)cn(C)c(=O)c2[nH]1 | 700 | 1550 | 23 | 1900 | 1830 | 14.7 | 1.1 | 380 |
| CCNC(=O)c1cc2c(-c3cc(NS(=O)(=O)CC)ccc3Oc3c(C)cccc3C)cn(C)c(=O)c2[nH]1 | 183 | 14700 | 1.7 | 300 | 1320 | 0.22 | 0.8 | 17 |
| CCNC(=O)c1cc2c(-c3cc(C4(O)COC4)ccc3Oc3c(C)cc(F)cc3C)cn(C)c(=O)c2[nH]1 | 350 | 267 | 24 | 2700 | 533 | 1.66 | 1.1 | – |
| CCNC(=O)c1cc2c(-c3cc(S(=O)(=O)CC)ccc3N3CCc4cccc(C)c43)cn(C)c(=O)c2[nH]1 | – | – | 4.2 | 340 | – | – | 0.5 | 9 |
| Cc1cc(F)cc(C)c1Oc1ccc(C(C)(C)O)cc1-c1cn(C)c(=O)c2[nH]c(C(=O)NC3(C)CC3(F)F)cc12 (stereo not drawn) | 1120 | 1400 | 66 | 2900 | 3500 | 0.76 | 2 | 780 |

| SMILES | CL free [1] [mL/min/kg] | CL free [2] [mL/min/kg] | IC50 (SKM-1) [nM] | IC50 (NCI-H1299) [nM] | CL free [3] [mL/min/kg] | Papp [4] [×10⁻⁶ cm/s] | Ki [5] [nM] | Ki [6] [nM] |
| --- | --- | --- | --- | --- | --- | --- | --- | --- |
| Cc1cc(F)cc(C)c1Oc1ccc(C(C)(C)O)cc1-c1cn(C)c(=O)c2[nH]c(C(=O)NC(C)(C)C)cc12 | 2170 | 1450 | 25 | 1500 | 8670 | – | 1.3 | 310 |
| Cc1cc(F)cc(C)c1Oc1ccc(C(C)(C)O)cc1-c1cn(C)c(=O)c2[nH]c(C(=O)NC34CC(C3)C4)cc12 | 2000 | – | 10 | 1100 | 11800 | 0.97 | 1.3 | 440 |
| CNC(=O)c1cc2c(-c3cc(C(C)(C)O)ccc3Oc3c(C)cc(F)cc3C)cn(C)c(=O)c2[nH]1 | 400 | 167 | 13 | 1200 | 550 | 0.55 | 1 | 140 |
| CCNC(=O)c1cc2c(-c3cc(S(=O)(=O)C4CC4)ccc3Oc3c(C)cccc3C)cn(C)c(=O)c2[nH]1 | 300 | 1780 | 20 | 730 | 1720 | 8.33 | 0.6 | 38 |
| CCNC(=O)c1cc2c(-c3cc(S(C)(=O)=O)ccc3Oc3ccc(F)cc3F)cn(C)c(=O)c2[nH]1 | 60 | < 51.7 | 6.6 | 370 | < 91.7 | 10.8 | 1.3 | – |
| CCNC(=O)c1cc2c(-c3cc(C4(O)CCOCC4)ccc3Oc3c(C)cc(F)cc3C)cn(C)c(=O)c2[nH]1 | 8670 | 817 | 6.7 | 2100 | 1670 | 1.47 | 1.2 | 300 |
| CCNC(=O)c1cc2c(-c3cc(S(=O)(=O)CC)ccc3Oc3c(C)cccc3F)cn(C)c(=O)c2[nH]1 | 150 | 2530 | 2.5 | 260 | – | 15.4 | 0.9 | 13 |
| Cc1cc(F)cc(C)c1Oc1ccc(C(C)(C)O)cc1-c1cn(C)c(=O)c2[nH]c(C(=O)NC(C)(C)C(F)(F)F)cc12 | 9500 | 18300 | 80 | 2600 | 46700 | 0.57 | – | – |
| CCNC(=O)c1cc2c(-c3cc(S(=O)(=O)CC)ccc3-c3c(C)cccc3C)cn(C)c(=O)c2[nH]1 | 550 | 617 | 1300 | > 10000 | – | 9 | 22 | > 12000 |
| CCNC(=O)c1cc2c(-c3cc(CO)ccc3Oc3c(C)cccc3C)cn(C)c(=O)c2[nH]1 | 417 | – | 65 | 3000 | 2330 | 1.69 | 1.7 | 270 |
| CCNC(=O)c1cc2c(-c3cc(NS(=O)(=O)CC)ccc3Oc3c(C)cc(F)cc3C)cn(C)c(=O)c2[nH]1 | 317 | – | 42 | 970 | 2000 | 0.23 | 1.1 | 49 |
| CCNC(=O)c1cc2c(-c3cc(S(=O)(=O)CC)ccc3Oc3ccccc3C)cn(C)c(=O)c2[nH]1 | 142 | – | 3.3 | 95 | 1100 | 3.68 | 0.8 | 8.4 |
| CCNC(=O)c1ccc(Oc2c(C)cccc2C)c(-c2cn(C)c(=O)c3[nH]c(C(=O)NCC)cc23)c1 | 217 | – | 19 | 1500 | 317 | 2.63 | 1.8 | 130 |
| CCNC(=O)c1cc2c(-c3cc(C(=O)O)ccc3Oc3c(C)cccc3C)cn(C)c(=O)c2[nH]1 | – | – | 3100 | > 10000 | – | 0.74 | 2.8 | 300 |
| CCNC(=O)c1cc2c(-c3cc(S(=O)(=O)CC)ccc3Oc3c(C)cccc3C(C)(C)C)cn(C)c(=O)c2[nH]1 | – | – | 290 | 3200 | – | – | 15 | 400 |
| CCNC(=O)c1cc2c(-c3cc(S(=O)(=O)CC)ccc3Oc3c(C)cccc3Cl)cn(C)c(=O)c2[nH]1 | 255 | 2120 | 6.2 | 670 | – | 2.73 | 0.9 | 30 |
| CCNC(=O)c1cc2c(-c3cc(S(=O)(=O)CC)ccc3Oc3ccccc3C(C)(C)C)cn(C)c(=O)c2[nH]1 | 1620 | 1430 | 21 | 460 | – | 5.6 | 2.1 | 22 |
